The record followed here is patent US11608313B2, “Adamantylmethylamine derivative and use thereof as pharmaceutical” (TOHOKU UNIVERSITY, priority 2017, dated 2023).

In experiment [1] the test system is CaMKII. Briefly: Protein phosphorylation in hippocampus of APP23 mice (immunoblotting). It is filed as in vivo. The following applies: APP23 mice chronically treated orally, 1 mg/kg, two months. The text has this:
Hippocampus samples were excised from APP23 mice, and hippocampal slices were suspended in an SDS sample buffer and analyzed for protein phosphorylation by immunoblotting using antibodies against CaMKII, CaMKIV and ERK (CaMKII: Fukunaga, et al., J. Biol. Chem. 1992, 267, 22527-22533; CaMKIV: Kasahara, et al., J. Biol. Chem. 2001, 276, 24044-24050; ERK: produced by Sigma-Aldrich). CaMKII, CaMKIV and ERK are all considered as molecules playing an important role in memory formation.

In experiment [2] the target is T1, Kir6.2 channels (Mus musculus, UniProt Q61743).
T1 construct: The plasmid vector having inserted therein Kir6.2 channel cDNA: pcDNA3.1-Kir6.2; expressed in transfected cells; host or cells: Neuro2A (N2A) cells, mouse neuroblastoma
T1 sequence (Q61743 1-390): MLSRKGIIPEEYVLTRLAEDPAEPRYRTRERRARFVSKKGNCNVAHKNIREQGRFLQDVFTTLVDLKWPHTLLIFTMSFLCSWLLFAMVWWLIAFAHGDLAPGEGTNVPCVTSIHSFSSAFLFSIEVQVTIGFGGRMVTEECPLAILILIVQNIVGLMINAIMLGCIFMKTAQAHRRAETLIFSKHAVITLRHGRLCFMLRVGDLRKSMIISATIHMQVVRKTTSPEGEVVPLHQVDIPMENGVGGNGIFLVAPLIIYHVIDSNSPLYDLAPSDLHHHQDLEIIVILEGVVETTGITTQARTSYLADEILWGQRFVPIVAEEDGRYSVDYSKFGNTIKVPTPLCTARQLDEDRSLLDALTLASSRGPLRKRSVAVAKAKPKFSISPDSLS
Briefly: Patch-clamp assay of outward potassium current in Kir6.2 channel-overexpressing cells. It is filed as cell-based. The following applies: 10 nM, whole-cell patch-clamp. The text has this:
The Kir6.2 channel-overexpressing cells obtained in Test Example 1 were used to measure potassium current discharged out of the cells by a conventional patch-clamp assay. ATP-sensitive potassium channels (Kir6.2 channels) are localized in the cell membranes of nerve cells. When the channels are inhibited and closed, the threshold of the nerve cell membranes increases to create a condition analogous to temporal generation of action potential, with the result that intracellular potassium current is discharged out of the cells and instead extracellular calcium current enters the cells. Immunoblotting of Kir6.2 channel-overexpressing cells (prepared by the aforementioned method) using an anti-Kir6.2 channel antibody (prepared by a conventional method) (n=5, under the same conditions as in Test Example 1, except for using the anti-Kir6.2 channel antibody) confirmed that Kir6.2 channels were overexpressed in N2A cells (FIG. 2-1; upper: immunoblot staining images; lower: quantitative representations of the signal intensity of staining bands).
On the technique in general: In patch-clamp work, channel activity is measured electrically.

For experiment [3], the system named is Wild-type mice (C57BL/6J) treated with corticosterone. Briefly: Anxiety-related behavioral tests in corticosterone-treated wild-type mice. It counts as in vivo. The conditions noted are these: 1 mg/kg orally once a day for 2 weeks. As to the method:
Wild-type mice (C57BL/6J, Japan SLC, two month-old) treated with corticosterone (at a dose of 5 mg/kg once a day for 2 weeks) and Kir6.1-deficient mice treated with corticosterone were used as disease models showing anxiety-like symptoms, to perform five behavioral tests regarding anxiety-related behaviors. The Kir6.1-deficient mice were obtained from Professor Susumu Seino, School of Medicine of Kobe University (Miki T., et al., Nature Medicine 2002, 8, 466-472).
The apparatus used in this test consists of four arms arranged in a cross shape at an elevated position, which are either open or closed. Mice vulnerable to anxiety stay in the closed arms for a longer time, whereas those resistant to anxiety stay in the open arms. In FIG. 19-1, the time spent in the open arms is shown on the vertical axis.
Mice placed in a black box (dark place) feel anxious about light. The time spent until mice began to come out of the box (to a bright place) was measured. […]
In a cage with a mouse, wood chips are spread over the cage floor and 20 marbles are placed thereon in a manner that is visible to the mouse. The mouse is allowed to freely explore for 30 minutes, and the number of marbles buried and hidden by the mouse in wood chips is counted. […]
The test apparatus used in this test was the same as used in the light/dark test method. […] Such an immobility time of mice is measured. […]

The target in experiment [4] is T2, Kir6.1 channels (Mus musculus, UniProt P97794).
T2 construct: The plasmid vector having inserted therein Kir6.1 channel cDNA: pcDNA3.1-Kir6.1; expressed in transfected cells; host or cells: Neuro2A (N2A) cells, mouse neuroblastoma
T2 sequence (P97794 1-424): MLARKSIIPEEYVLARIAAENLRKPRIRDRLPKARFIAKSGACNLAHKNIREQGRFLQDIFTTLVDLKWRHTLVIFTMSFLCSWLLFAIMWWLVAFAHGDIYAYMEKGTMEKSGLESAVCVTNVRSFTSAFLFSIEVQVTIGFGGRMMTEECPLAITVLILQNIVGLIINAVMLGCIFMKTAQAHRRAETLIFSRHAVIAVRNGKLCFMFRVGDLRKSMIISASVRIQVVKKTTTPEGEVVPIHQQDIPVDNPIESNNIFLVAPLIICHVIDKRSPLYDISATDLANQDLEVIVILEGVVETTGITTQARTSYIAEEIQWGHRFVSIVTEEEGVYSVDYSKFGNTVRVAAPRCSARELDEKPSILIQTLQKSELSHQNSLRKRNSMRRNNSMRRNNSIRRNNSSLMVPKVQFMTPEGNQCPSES
The experiment is described as follows: Patch-clamp assay of outward potassium current in Kir6.1 channel-overexpressing cells. It is filed as cell-based. The conditions noted are these: 10 nM. The text has this:
Further, the obtained Kir6.1 channel-overexpressing cells were used to measure potassium current discharged out of the cells by a conventional patch-clamp assay. ATP-sensitive potassium channels (Kir6.1 channels) are localized in the cell membranes of nerve cells. If the channels are inhibited and closed, the threshold of the nerve cell membranes rises to create a condition analogous to temporal generation of action potential, with the result that intracellular potassium current is discharged out of the cells and instead extracellular calcium current enters the cells. Immunoblotting of Kir6.1 channel-overexpressing cells (prepared by the aforementioned method) using an anti-Kir6.1 channel antibody (prepared by a conventional method) (n=5, under the same conditions as in Test Example 1, except for using the anti-Kir6.1 channel antibody) confirmed that Kir6.1 channels were overexpressed in N2A cells (FIG. 18-2; upper: immunoblot staining images; lower: quantitative representations of the signal intensity of staining bands).

`O=C(N[C@@H](c1ccccc1)[C@H]1[C@H]2C[C@@H]3C[C@](Cl)(C2)C[C@@]1(OC(=O)C(F)(F)F)C3)C(F)(F)F` [TP-014, (1S,2R,3S,5S,7S)-5-chloro-2-((R)-phenyl(2,2,2-trifluoroacetamido)methyl)adamantan-1-yl 2,2,2-trifluoroacetate]: the “CaMKII phosphorylation in hippocampus” value in experiment [1] is recorded as “increased CaMKII phosphorylation”. In addition, the “outwardly flowing potassium current” value in experiment [2] and in experiment [4] was “suppressed” each time. For the same compound, the “exacerbated anxiety symptoms (elevated plus-maze, light/dark, marble burying, open field, fear conditioning tests)” value in experiment [3] is “significant amelioration of exacerbated anxiety symptoms”.
